The C3SDB collision cross section collection

Experiments:
[1] = instrument: TW, calibrated with phosphatidylcholines (ESI+) and phosphatidylethanolamines (ESI-)
[2] = instrument: DT, single field, calibrated with Agilent tune mix (Agilent)

Compound: CC/C=C\C/C=C\C/C=C\C/C=C\C/C=C\CCCCCC(=O)O[C@@H](CO)COC(=O)CCCC/C=C\C/C=C\C/C=C\CCCCC [DG(20:4/20:4)]
- collision cross section (N2) ([1]; [M+H-H2O]+): 262.6 Å²

Compound: CCCCCCCCCCCCC=CC[C@@H](O)[C@H](CO[C@@H]1O[C@H](CO)[C@@H](O)C(O)C1O)NC(=O)CCCCCCCCCCCCCCCCC (some centres undefined) [GlcCer(d18:1/18:0)]
- collision cross section (N2) ([1]; [M+H]+): 282.6 Å²
- collision cross section (N2) ([1]; [M+Na]+): 282.2 Å²

Compound: CCCCCCCCCCCCC=CC[C@@H](O)[C@H](CO[C@@H]1O[C@H](CO)[C@@H](O)C(O)C1O)NC(=O)CCCCCCCCCCCCCCCCCCC (some centres undefined) [GlcCer(d18:1/20:0)]
- collision cross section (N2) ([1]; [M+H]+): 287.8 Å²

Compound: CCCCCCCCCCCCC=CC[C@@H](O)[C@H](CO[C@@H]1O[C@H](CO)[C@@H](O)C(O)C1O)NC(=O)CCCCCCCCCCCCCCCCCCCCC (some centres undefined) [GlcCer(d18:1/22:0)]
- collision cross section (N2) ([1]; [M+H]+): 293.2 Å²
- collision cross section (N2) ([1]; [M+Na]+): 294.3 Å²

Compound: CCCCCCCCCCCCC=CC[C@@H](O)[C@H](CO[C@@H]1O[C@H](CO)[C@@H](O)C(O)C1O)NC(=O)CC=CCCCCCCCCCCCCCCCCCC (some centres undefined) [GlcCer(d18:1/22:1)]
- collision cross section (N2) ([1]; [M+H]+): 293.1 Å²
- collision cross section (N2) ([1]; [M+Na]+): 290.1 Å²

Compound: CCCCCCCCCCCCC=CC[C@@H](O)[C@H](CO[C@@H]1O[C@H](CO)[C@@H](O)C(O)C1O)NC(=O)CCCCCCCCCCCCCCCCCCCCCCC (some centres undefined) [GlcCer(d18:1/24:0)]
- collision cross section (N2) ([1]; [M+H]+): 299.7 Å²
- collision cross section (N2) ([1]; [M+Na]+): 299.1 Å²

Compound: CCCCCCCCCCCCC=CC[C@@H](O)[C@H](CO[C@@H]1O[C@H](CO)[C@@H](O)C(O)C1O)NC(=O)CC=CCCCCCCCCCCCCCCCCCCCCCC (some centres undefined) [GlcCer(d18:1/26:1)]
- collision cross section (N2) ([1]; [M+H]+): 304.5 Å²
- collision cross section (N2) ([1]; [M+Na]+): 304.7 Å²

Compound: CCCCCCCCCCCCCC(=O)OC[C@@H](O)COP(=O)([O-])OCC[N+](C)(C)C [LPC(14:0)]
- collision cross section (N2) ([2]; [M+HCOO]-): 227 Å²
- collision cross section (N2) ([1]; [M+H]+): 220.8 Å²

Compound: CCCCCCCCCCCCCCCC(=O)O[C@H](CO)COP(=O)(O)OCCN [LPE(16:0)]
- collision cross section (N2) ([2]; [M+H]+): 213.7 Å²
- collision cross section (N2) ([2]; [M+Na]+): 219.9 Å²
- collision cross section (N2) ([2]; [M-H]-): 207.1 Å²
- collision cross section (N2) ([1]; [M+H]+): 213.4 Å²
- collision cross section (N2) ([1]; [M+Na]+): 218.8 Å²
- collision cross section (N2) ([1]; [M-H]-): 206 Å²

Compound: CCCCCCCCCCCCCCCC/C=C\OC[C@@H](O)COP(=O)([O-])OCC[NH3+] [LPE(p18:0)]
- collision cross section (N2) ([1]; [M+H]+): 222.5 Å²
- collision cross section (N2) ([1]; [M+Na]+): 222 Å²
- collision cross section (N2) ([1]; [M-H]-): 211.4 Å²

Compound: CCCC/C=C\C/C=C\CCCCCCCC(=O)O[C@H](COC(=O)CCCCCCC/C=C\CCCCCCCCC)COP(=O)(O)O [PA(36:3)]
- collision cross section (N2) ([2]; [M+NH4]+): 270.8 Å²
- collision cross section (N2) ([1]; [M-H]-): 257.9 Å²

Compound: CCCCC/C=C\C/C=C\C/C=C\C/C=C\CCCCCC(=O)O[C@H](COC(=O)CCCCCCCCCCCCC)COP(=O)(O)O [PA(36:4)]
- collision cross section (N2) ([2]; [M+NH4]+): 272.4 Å²
- collision cross section (N2) ([2]; [M-H]-): 258.1 Å²
- collision cross section (N2) ([1]; [M-H]-): 257.1 Å²

Compound: CCCCC/C=C\C/C=C\C/C=C\CCCCC(=O)O[C@H](COC(=O)CCCCCCCCC/C=C\CCCCCCCC)COP(=O)(O)O [PA(38:4)]
- collision cross section (N2) ([2]; [M+NH4]+): 279.1 Å²
- collision cross section (N2) ([2]; [M-H]-): 264.3 Å²
- collision cross section (N2) ([1]; [M-H]-): 263.4 Å²

Compound: CCCCCCCCCCCCCCCCCCC(=O)O[C@H](COC(=O)CCCCCCCCCCCCCCCC)COP(=O)([O-])OCC[N+](C)(C)C [PC(36:0)]
- collision cross section (N2) ([1]; [M+H]+): 292.5 Å²

Compound: CCCCC/C=C\C/C=C\C/C=C\C/C=C\C/C=C\CCC(=O)O[C@H](COC(=O)CCCCCCCCCCCCC)COP(=O)([O-])OCC[N+](C)(C)C [PC(36:5)]
- collision cross section (N2) ([2]; [M+H]+): 284.5 Å²
- collision cross section (N2) ([1]; [M+H]+): 284.1 Å²

Compound: CCCCC/C=C\C/C=C\CCCCCCCCCC(=O)O[C@H](COC(=O)CCCCCCCCC/C=C\CCCCCC)COP(=O)([O-])OCC[N+](C)(C)C [PC(38:3)]
- collision cross section (N2) ([2]; [M+H]+): 295 Å²
- collision cross section (N2) ([1]; [M+CH3COO]-): 296.7 Å²
- collision cross section (N2) ([1]; [M+H]+): 291.9 Å²

Compound: CCCCC/C=C\C/C=C\C/C=C\CCCCC(=O)OC[C@H](COP(=O)([O-])OCC[N+](C)(C)C)OC(=O)CCCCCCCCC/C=C\C/C=C\CCCCC [PC(38:5)]
- collision cross section (N2) ([2]; [M+HCOO]-): 293 Å²
- collision cross section (N2) ([2]; [M+H]+): 292.9 Å²
- collision cross section (N2) ([2]; [M+Na]+): 296.8 Å²
- collision cross section (N2) ([1]; [M+CH3COO]-): 295.4 Å²
- collision cross section (N2) ([1]; [M+H]+): 289.7 Å²

Compound: CC/C=C\C/C=C\C/C=C\C/C=C\CCCCC(=O)O[C@H](COC(=O)CCCCCC/C=C\C/C=C\C/C=C\CCCCC)COP(=O)([O-])OCC[N+](C)(C)C [PC(38:7)]
- collision cross section (N2) ([2]; [M+H]+): 288.2 Å²
- collision cross section (N2) ([1]; [M+H]+): 286.5 Å²
